The nature of data set [1]: In vitro cytotoxicity, MTT cell viability assay in HepG2 cells. Format: cell-based. The settings on record: human, Cytotoxicity CC50. On the procedure:
To evaluate antiviral selectivity, the cytotoxic activity of each compound was determined using a standard cell viability assay performed on the parental HepG2 cell line. Cell viability was determined by measuring the conversion of 3-(4,5-dimethylthiazol-2-yl)-2,5-diphenyltetrazolium bromide (MTT) to the insoluble formazan salt crystal that occurs in live cells. Briefly, HepG2 cells were seeded in 96-well plates at a density of 20,000 cells per well in EMEM+10% FBS (complete growth medium) and allowed to adhere overnight in a 37° C., 5% CO2 humidified incubator. The next day, test agents were prepared by performing 8 half-log10 serial dilutions in 100% DMSO at 200× the final desired concentration in the assay. Compounds were tested over a range of concentrations from 30 μM to 1.0 nM in the assay. HepG2 cells were incubated in the presence of various concentrations of CAMs for 7 days in a 37° C., 5% CO2 humidified incubator. At the completion of the 7-day incubation period, MTT reagent was added to each well and the mixture was incubated for an additional 3-4 hours. At the completion of the incubation period, all wells were aspirated to remove the culture medium. The formazan crystals were solubilized from the cell monolayers with 100% DMSO. Plates were briefly mixed on an orbital shaker and absorbance was measured at 492 nm using a Perkin-Elmer EnVision multi-label plate reader. All absorbance values were converted to a percentage of the signal obtained from the vehicle treated controls. Absorbance values at 492 nm are directly proportional to the number of viable cells present in the sample. A CC50 value (cytotoxic concentration that results in loss of 50% cell viability) was calculated from the dose-response curve by 4-parameter, non-linear regression analysis using the GraphPad Prism software. The positive control compound, staurosporine, reduced the viability of HepG2 cells in a dose-dependent manner (CC50=100 nM).

Data set [2] concerns HBV replication in HepAD38 cells. Put plainly: Anti-HBV activity in HepAD38 cells, extracellular HBV DNA by QPCR. Format: cell-based, HBV (genotype D, serotype ayw). The settings on record: Hepatitis B virus, HePAD38, 168 h, read-out: Anti-HBV EC50, HepAD38 cells, extracellular HBV DNA by QPCR, 7 days of incubation. On the procedure:
The anti-HBV activity of the Capsid Assembly Modulators (CAMs) was evaluated in a cell based assay utilizing the human hepatoma cell line HepAD38 (Ladner, S K., et al., 1998). HepAD38 cells were derived from the parental line, HepG2, that were stably transfected with a construct containing an HBV genome (genotype D, serotype ayw) under the control of a tetracycline repressible CMV promoter. Upon removal of tetracycline, viral pre-genomic RNA (pgRNA) and mRNAs are expressed and infectious viral particles are assembled and secreted into the culture medium providing a reliable, robust system to measure multiple steps of the HBV life cycle. Disruption of capsid formation results in reduced levels of DNA-containing virus particles that are released into the culture supernatant. To quantify the effect of CAMs on HBV replication, we developed a sensitive QPCR-based assay that measures extracellular HBV DNA levels upon treatment of HepAD38 cells with various concentrations of test compounds.
HepAD38 cells were maintained in DMEM/F12 medium containing 10% FBS, 400 μg/mL G418 and 0.3 μg/mL tetracycline (tet+medium) to maintain repression of HBV replication. To evaluate each compound, HepAD38 cells were seeded into 24-well collagen coated culture plates (Corning BioCoat) at a density of 200,000 cells per well in 1 mL of tet+medium and allowed to adhere overnight at 37° C., 5% CO2 in a humidified incubator. The following day, test articles were subjected to half-logo serial dilutions, ranging from 30 μM to 10 nM, in 100% DMSO at 200× the desired final assay concentration. Tetracycline was removed from the cells by aspirating the tet+medium and washing the cells once with growth medium lacking tetracycline (tet-). Various concentrations of each compound were added to the appropriate wells (1:200 dilution) and the plates were returned to the incubator. Following 7 days of incubation, culture supernatants were harvested and HBV DNA levels were evaluated by QPCR and compared to the vehicle treated control wells (i.e. DMSO alone).
To quantify HBV DNA levels, cell culture supernatants were diluted 1:10 in sterile, nuclease-free water (Gibco). The diluted supernatants were subsequently added to a PCR master mix containing 1× Roche Light Cycler Master Mix, 0.5 μM forward primer, 0.5 μM reverse primer (Fwd:
0.2 μM Roche Universal Probe Library Probe 25. The volume was brought to 20 μL with nuclease-free water and amplification of the HBV target sequence was performed using a Roche LightCycler 480 QPCR instrument. PCR extended out to 45 cycles with each cycle consisting of a denaturation step at 95° C. for 10 sec., followed by an annealing step at 60° C. for 10 sec. and a brief extension step at 72° C. for 1 sec.
Extracellular HBV DNA levels, expressed in copies/mL, were determined by comparison to a standard curve (10^2-10^9 copies/mL) using the Roche LightCycler analysis software. These values were subsequently converted to percent inhibition of HBV replication by dividing the HBV DNA levels in the experimental samples with those obtained from the vehicle control (˜1-2×10^5 copies/mL). Potency, expressed as an EC50 (the effective concentration required to inhibit […] of HBV replication), was calculated from the dose-response curve using a 4-parameter non-linear regression analysis (GraphPad Prism). The nucleoside analog inhibitor entecavir was used as a positive control to validate each assay run. The EC50 value of entecavir in the HepAD38 assay was 0.5 nM, as previously reported in the literature.

Broadly, the CC50 is the concentration at which the toxic effect on the cells reaches its halfway point. Lower therefore signals greater toxicity to the cells. The term EC50 denotes the concentration needed to bring the measured effect to its halfway point.

With `O=C(Nc1ccc(F)c(F)c1)c1ccc(F)c(C(F)(F)C(=O)N2CCC(O)CC2)c1` [Example 2, 3-(1,1-difluoro-2-(4-hydroxypiperidin-1-yl)-2-oxoethyl)-N-(3,4-difluorophenyl)-4-fluorobenzamide], in data set [1], the 50% cytotoxic concentration (CC50) at 7 days was 5 to 30 µM. In data set [2], the EC50 was < 5 µM.

Turning to `Cc1cc(NC(=O)c2cc(C(F)(F)C(=O)NC(C)(C)C)n(C)n2)ccc1F` [Example 165, 5-(2-(tert-butylamino)-1,1-difluoro-2-oxoethyl)-N-(4-fluoro-3-methylphenyl)-1-methyl-1H-pyrazole-3-carboxamide], the CC50 at 7 days in data set [1] is > 30 µM. Moreover, the EC50 in data set [2] was in the range of 5 to 30 µM.

Take `CNCC(=O)NC1CCN(C(=O)C(F)(F)c2nc(C(=O)Nc3ccc(F)c(C)c3)ccc2F)CC1(C)C` (stereo not shown) [Example 302, 6-(2-(3,3-dimethyl-4-(2-(methylamino)acetamido)piperidin-1-yl)-1,1-difluoro-2-oxoethyl)-5-fluoro-N-(4-fluoro-3-methylphenyl)picolinamide]: the 50% cytotoxic concentration (CC50) at 7 days in data set [1] is 5 to 30 µM. The EC50 in data set [2] is < 5 µM.

In data set [1], `Cc1cc(NC(=O)c2ccc(F)c(C(F)(F)C(=O)N3[C@@H]4CC[C@H]3C[C@@H](N)C4)c2)ccc1F` [Example 226, 3-(2-((1R,3r,5S)-3-amino-8-azabicyclo[3.2.1]octan-8-yl)-1,1-difluoro-2-oxoethyl)-4-fluoro-N-(4-fluoro-3-methylphenyl)benzamide] yielded a CC50 at 7 days of 5 to 30 µM. The EC50 in data set [2] is < 5 µM.

In the case of `Cc1cc(NC(=O)c2ccc([C@@H](O)CO)c(C(F)(F)C(=O)NC(C)(C)C)c2)ccc1F` [Example 117, (R)-3-(2-(tert-butylamino)-1,1-difluoro-2-oxoethyl)-4-(1,2-dihydroxyethyl)-N-(4-fluoro-3-methylphenyl)benzamide], the CC50 at 7 days in data set [1] is > 30 µM. Besides, in data set [2], the EC50 was > 30 µM.

In turn, `O=C(Nc1ccc(F)c(F)c1)c1ccc(F)c(C(F)(F)C(=O)N2CCCCC2)c1` [Example 11, 3-(1,1-difluoro-2-oxo-2-(piperidin-1-yl)ethyl)-N-(3,4-difluorophenyl)-4-fluorobenzamide] gave a CC50 at 7 days in data set [1] of 5 to 30 µM. In addition, in data set [2], the EC50 was in the range of 5 to 30 µM.

Take `O=C(Nc1ccc(F)c(F)c1)c1ccc(F)c(C(F)(F)C(=O)Nc2ccncc2)c1` [Example 50, 3-(1,1-difluoro-2-oxo-2-(pyridin-4-ylamino)ethyl)-N-(3,4-difluorophenyl)-4-fluorobenzamide]: the CC50 at 7 days in data set [1] fell in the range of 5 to 30 µM. In addition, the EC50 in data set [2] is 5 to 30 µM.

In the case of `CCn1ccc(C(=O)Nc2ccc(F)c(C)c2)c1C(F)(F)C(=O)NC(C)(C)C` [Example 135, 2-(2-(tert-butylamino)-1,1-difluoro-2-oxoethyl)-1-ethyl-N-(4-fluoro-3-methylphenyl)-1H-pyrrole-3-carboxamide], the CC50 at 7 days in data set [1] was > 30 µM. In addition, the EC50 in data set [2] lay in the range of 5 to 30 µM.

In data set [1], `Cc1cc(NC(=O)c2ccc(F)c(C(F)(F)C(=O)N3[C@@H]4CCC[C@H]3CC(=O)C4)c2)ccc1F` [Example 200, 3-(1,1-difluoro-2-oxo-2-((1R,5S)-3-oxo-9-azabicyclo[3.3.1]nonan-9-yl)ethyl)-4-fluoro-N-(4-fluoro-3-methylphenyl)benzamide] displayed a CC50 at 7 days of 5 to 30 µM. In addition, the EC50 in data set [2] was < 5 µM.

In data set [1], `COc1ccccc1NC(=O)C(F)(F)c1cc(C(=O)Nc2ccc(F)c(F)c2)ccc1F` [Example 21, 3-(1,1-difluoro-2-((2-methoxyphenyl)amino)-2-oxoethyl)-N-(3,4-difluorophenyl)-4-fluorobenzamide] yielded a CC50 at 7 days of 5 to 30 µM. In addition, the EC50 in data set [2] fell in the range of 5 to 30 µM.

For the compound `Cc1cc(NC(=O)c2ccc(F)c(C(F)(F)C(=O)N3C4COCC3CC(=NO)C4)c2)ccc1F` [Example 273, 3-(1,1-difluoro-2-(7-(hydroxyimino)-3-oxa-9-azabicyclo[3.3.1]nonan-9-yl)-2-oxoethyl)-4-fluoro-N-(4-fluoro-3-methylphenyl)benzamide], the CC50 at 7 days in data set [1] was in the range of 5 to 30 µM. Moreover, the EC50 in data set [2] is < 5 µM.

In the case of `Cc1cc(NC(=O)c2cc(Br)c(C(F)(F)C(=O)NC(C)(C)C)s2)ccc1F` [Example 158, 4-bromo-5-(2-(tert-butylamino)-1,1-difluoro-2-oxoethyl)-N-(4-fluoro-3-methylphenyl)thiophene-2-carboxamide], in data set [1], the CC50 at 7 days lay within 5 to 30 µM. Further, the EC50 in data set [2] was in the range of 5 to 30 µM.

As for `CC[C@H](C)NC(=O)C(F)(F)c1c(C(=O)Nc2ccc(F)c(C)c2)ccn1C` [Example 108, (S)-2-(2-(sec-butylamino)-1,1-difluoro-2-oxoethyl)-N-(4-fluoro-3-methylphenyl)-1-methyl-1H-pyrrole-3-carboxamide], in data set [1], the CC50 at 7 days is > 30 µM. Moreover, the EC50 in data set [2] was < 5 µM.

`Cc1cc(NC(=O)c2ccc(F)c(C(F)(F)C(=O)N3CCc4nc(N)sc4CC3)c2)ccc1F` [Example 340, 3-(2-(2-amino-4,5,7,8-tetrahydro-6H-thiazolo[4,5-d]azepin-6-yl)-1,1-difluoro-2-oxoethyl)-4-fluoro-N-(4-fluoro-3-methylphenyl)benzamide] displayed a CC50 at 7 days in data set [1] of 5 to 30 µM. In addition, the EC50 in data set [2] was < 5 µM.

In data set [1], `Cc1cc(NC(=O)c2ccc(F)c(C(F)(F)C(=O)N3CC4CCC(C3)C4O)c2)ccc1F` [Example 281, 3-(1,1-difluoro-2-((1R,5S,8s)-8-hydroxy-3-azabicyclo[3.2.1]octan-3-yl)-2-oxoethyl)-4-fluoro-N-(4-fluoro-3-methylphenyl)benzamide] had a CC50 at 7 days of 5 to 30 µM. In data set [2], the EC50 was < 5 µM.

In data set [1], `CC(=O)N[C@@H]1C[C@H]2CC[C@@H](C1)N2C(=O)C(F)(F)c1cc(C(=O)Nc2ccc(F)c(C)c2)ccc1F` [Example 227, 3-(2-((1R,3s,5S)-3-acetamido-8-azabicyclo[3.2.1]octan-8-yl)-1,1-difluoro-2-oxoethyl)-4-fluoro-N-(4-fluoro-3-methylphenyl)benzamide] registered a CC50 at 7 days of 5 to 30 µM. Moreover, the EC50 in data set [2] is < 5 µM.

As for `O=C(Nc1ccc(F)c(Br)c1)c1ccc(F)c(C(F)(F)C(=O)N2[C@@H]3CC[C@H]2C[C@H](O)C3)c1` [Example 189, N-(3-bromo-4-fluorophenyl)-3-(1,1-difluoro-2-((1R,3s,5S)-3-hydroxy-8-azabicyclo[3.2.1]octan-8-yl)-2-oxoethyl)-4-fluorobenzamide], the CC50 at 7 days in data set [1] was in the range of 5 to 30 µM. Moreover, the EC50 in data set [2] is < 5 µM.

These data come from US11247965B2 (VenatoRx Pharmaceuticals, Inc., priority 2017, dated 2022).
